Values of other authors in patent publication US10675364B2, “Rhodol fluorophores for near-infrared imaging” (The Board of Trustees of the Leland Stanford Junior …, priority 2015, dated 2020).

Settings: highly sensitive to pH in the physiological range

pKa: 6.3
SMILES: O=C1OC2(c3ccc(O)cc3Oc3cc(O)ccc32)c2ccccc21 [fluorescein]
